Source: patent publication US7834023B2 (Portola Pharmaceuticals, Inc., priority 2006, dated 2010)

Legend:
[1] = system: human platelet-rich plasma (PRP); experiment: PRP assay: inhibition of ADP-mediated platelet aggregation in vitro; type: cell-based; settings: Homo sapiens, Platelet, ADP-induced aggregation
Experimental: The effect of testing the compound according to the invention on ADP-induced human platelet aggregation was assessed in a 96-well microtiter assay (see generally the procedures in Jantzen, H. M. et al. (1999) Thromb. Hemost. 81:111-117) or standard cuvette light transmittance aggregometry using either human platelet-rich plasma (PRP) or human washed platelets.
For preparation of human platelet-rich plasma for aggregation assays, human venous blood was collected from healthy, drug-free volunteers into 0.38% sodium citrate (0.013 M, pH 7.0 final). Platelet-rich plasma (PRP) is prepared by centrifugation of whole blood at 160×g for 20 minutes at room temperature. The PRP layer is removed, transferred to a new tube, and the platelet count is adjusted, if necessary, to achieve a platelet concentration of ˜3×10^8 platelets/ml using platelet-poor plasma (PPP). PPP is prepared by centrifugation of the remaining blood sample (after removal of PRP) for 20 minutes at 800×g. This preparation of PRP can subsequently be used for aggregation assays in either a 96-well plate or standard cuvette aggregometry.
For cuvette light transmittance aggregation assays, serial dilutions (1:3) of test compounds were prepared in 100% DMSO in a 96 well V-bottom plate (final DMSO concentration in the cuvette was 0.6%). The test compound (3 μl of serial dilutions in DMSO) was preincubated with PRP for 30-45 seconds prior to initiation of aggregation reactions, which were performed in a ChronoLog aggregometer by addition of agonist (5 or 10 μM ADP) to 490 μL of PRP at 37° C. In some cases, light transmittance aggregometry was performed using 490 μL of washed platelets (prepared as described above) at 37° C., and aggregation was initiated by addition of 5 μM ADP and 0.5 mg/ml human fibrinogen (American Diagnostics, Inc., Greenwich, Conn.). The aggregation reaction is recorded for ˜5 min, and maximum extent of aggregation is determined by the difference in extent of aggregation at baseline, compared to the maximum aggregation that occurs during the five minute period of the assay. Inhibition of aggregation was calculated as the maximum aggregation observed in the presence of inhibitor, compared to that in the absence of inhibitor. IC50s were derived by non-linear regression analysis using the Prism software (GraphPad, San Diego, Calif.).
Inhibition of ADP-dependent aggregation was also determined in 96-well flat-bottom microtiter plates using a microtiter plate shaker and plate reader similar to the procedure described by Frantantoni et al., Am. J. Clin. Pathol. 94, 613 (1990). All steps are performed at room temperature. For 96-well plate aggregation using platelet-rich plasma (PRP), the total reaction volume of 0.2 ml/well includes 180 μl of PRP (˜3×10^8 platelets/ml, see above), 6 μl of either serial dilution of test compounds in 20% DMSO or buffer (for control wells), and 10 μl of 20×ADP agonist solution (100 μM). The OD of the samples is then determined at 450 nm using a microtiter plate reader (Softmax, Molecular Devices, Menlo Park, Calif.) resulting in the 0 minute reading. The plates are then agitated for 5 min on a microtiter plate shaker and the 5 minute reading is obtained in the plate reader. Aggregation is calculated from the decrease of OD at 450 nm at t=5 minutes compared to t=0 minutes and is expressed as % of the decrease in the ADP control samples after correcting for changes in the unaggregated control samples. IC50s were derived by non-linear regression analysis.

P2Y12 receptor = molecular target: T1, P2Y12 receptor (Homo sapiens, UniProt Q9H244); experiment: platelet ADP receptor binding assay (ARB): inhibition of [3H]2-MeS-ADP binding to platelets; settings: [3H]2-MeS-ADP binding to apyrase-washed human platelets
T1 construct: endogenous in cells; host or cells: human platelets (outdated from blood banks or fresh), apyrase-washed, whole
In short: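 Apyrase-washed human platelets (1×10^8 per well) were preincubated 5 min with serial compound dilutions in Hepes-Tyrode's/0.1% BSA/0.6% DMSO, then incubated 15 min at room temperature with 1 nM [3H]2-MeS-ADP. Filter-bound radioactivity gave specific binding (nonspecific: 10 μM 2-MeS-ADP), and IC50s came from non-linear regression.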

T1 sequence (Q9H244 whole entry): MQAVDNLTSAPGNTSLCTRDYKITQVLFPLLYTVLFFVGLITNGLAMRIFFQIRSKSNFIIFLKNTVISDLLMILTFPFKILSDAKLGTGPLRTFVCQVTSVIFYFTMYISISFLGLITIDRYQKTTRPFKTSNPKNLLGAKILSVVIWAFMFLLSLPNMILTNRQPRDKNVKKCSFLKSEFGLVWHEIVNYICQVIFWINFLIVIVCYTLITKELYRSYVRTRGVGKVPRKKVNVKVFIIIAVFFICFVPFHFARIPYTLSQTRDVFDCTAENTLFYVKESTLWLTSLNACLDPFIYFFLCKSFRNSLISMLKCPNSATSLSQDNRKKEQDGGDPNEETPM

Structure (SMILES)	IC50 [1] [µM]	IC50 (P2Y12 receptor) [nM]
CNc1cc2[nH]c(=O)n(-c3ccc(C(=O)N(CC(=O)O)Cc4ccc(Cl)s4)cc3)c(=O)c2cc1F [Compound 6, 2-(N-((5-chlorothiophen-2-yl)methyl)-4-(6-fluoro-7-(methylamino)-2,4-dioxo-1,2-dihydroquinazolin-3(4H)-yl)benzamido)acetic acid]	> 30	50 to 500
CNc1cc2[nH]c(=O)n(-c3ccc(C(=O)NC(c4nnn[nH]4)c4ccc(Cl)s4)cc3)c(=O)c2cc1F (stereo not shown) [Compound 7, N-((5-chlorothiophen-2-yl)(1H-tetrazol-5yl)methyl)-4-(6-fluoro-7-(methylamino)-2,4-dioxo-1,2-dihydroquinazolin-3(4H)-yl)benzamide]	< 10	< 50
CNc1cc2[nH]c(=O)n(-c3ccc(C(=O)NC(c4cccc(Cl)c4)c4nnn[nH]4)cc3)c(=O)c2cc1F (stereo not shown) [Compound 11, N-((3-chlorophenyl)(1H-tetrazol-5-yl)methyl)-4-(6-fluoro-7-(methylamino)-2,4-dioxo-1,2-dihydroquinazolin-3(4H)-yl)benzamide]	> 30	50 to 500
CNc1cc2[nH]c(=O)n(-c3ccc(C(=O)NC(C(=O)O)c4ccc(Cl)s4)cc3)c(=O)c2cc1F (stereo not shown) [Compound 13, 2-(5-chlorothiophen-2-yl)-2-(4-(6-fluoro-7-(methylamino)-2,4-dioxo-1,2-dihydroquinazolin-3(4H)-yl)benzamido)acetic acid]	< 10	50 to 500
CNc1cc2[nH]c(=O)n(-c3ccc(C(=O)NC(C(=O)O)c4ccc(C)s4)cc3)c(=O)c2cc1F (stereo not shown) [Compound 19, 2-(4-(6-fluoro-7-(methylamino)-2,4-dioxo-1,2-dihydroquinazolin-3(4H)-yl)benzamido)-2-(5-methylthiophen-2-yl)acetic acid]	< 10	50 to 500
CNc1cc2[nH]c(=O)n(-c3ccc(C(=O)NC(c4noc(=O)[nH]4)c4ccc(Cl)s4)cc3)c(=O)c2cc1F (stereo not shown) [Compound 21, N-((5-chlorothiophen-2-yl)(5-oxo-4,5-dihydro-1,2,4-oxadiazol-3-yl)methyl)-4-(6-fluoro-7-(methylamino)-2,4-dioxo-1,2-dihydroquinazolin-3(4H)-yl)benzamide]	< 10	< 50
CNc1cc2[nH]c(=O)n(-c3ccc(C(=O)NC(CC(=O)O)c4ccc(Cl)s4)cc3)c(=O)c2cc1F (stereo not shown) [Compound 27, 3-(5-chlorothiophen-2-yl)-3-(4-(6-fluoro-7-(methylamino)-2,4-dioxo-1,2-dihydroquinazolin-3(4H)-yl)benzamido)propanoic acid]	> 30	50 to 500
CNc1cc2[nH]c(=O)n(-c3ccc(C(=O)NC(c4noc(=S)[nH]4)c4ccc(Cl)s4)cc3)c(=O)c2cc1F (stereo not shown) [Compound 32, N-((5-chlorothiophen-2-yl)(5-thioxo-4,5-dihydro-1,2,4-oxadiazol-3-yl)methyl)-4-(6-fluoro-7-(methylamino)-2,4-dioxo-1,2-dihydroquinazolin-3(4H)-yl)benzamide]	< 10	50 to 500
CNc1cc2[nH]c(=O)n(-c3ccc(C(=O)NC(C(=O)OCCN4CCOCC4)c4ccc(Cl)s4)cc3)c(=O)c2cc1F (stereo not shown) [Compound 35, 2-morpholinoethyl 2-(5-chlorothiophen-2-yl)-2-(4-(6-fluoro-7-(methylamino)-2,4-dioxo-1,2-dihydroquinazolin-3(4H)-yl)benzamido)acetate]	10 to 30	50 to 500
CNc1cc2[nH]c(=O)n(-c3ccc(C(=O)NC(C(=O)O)c4ccc(Cl)s4)c(C)c3)c(=O)c2cc1F (stereo not shown) [Compound 41, 2-(5-chlorothiophen-2-yl)-2-(4-(6-fluoro-7-(methylamino)-2,4-dioxo-1,2-dihydroquinazolin-3(4H)-yl)-2-methylbenzamido)acetic acid]	10 to 30	50 to 500
CNc1cc2[nH]c(=O)n(-c3ccc(C(=O)NC(C(=O)O)c4ccc(Cl)s4)c(F)c3)c(=O)c2cc1F (stereo not shown) [Compound 44, 2-(5-chlorothiophen-2-yl)-2-(2-fluoro-4-(6-fluoro-7-(methylamino)-2,4-dioxo-1,2-dihydroquinazolin-3(4H)-yl)benzamido)acetic acid]	10 to 30	50 to 500
CNc1cc2[nH]c(=O)n(-c3ccc(C(=O)N[C@@H](c4noc(=O)[nH]4)c4ccc(Cl)s4)cc3)c(=O)c2cc1F [Compound 45, (S)-N-((5-chlorothiophen-2-yl)(5-oxo-4,5-dihydro-1,2,4-oxadiazol-3-yl)methyl)-4-(6-fluoro-7-(methylamino)-2,4-dioxo-1,2-dihydroquinazolin-3(4H)-yl)benzamide]	< 10	< 50
CNc1cc2[nH]c(=O)n(-c3ccc(C(=O)N[C@H](c4noc(=O)[nH]4)c4ccc(Cl)s4)cc3)c(=O)c2cc1F [Compound 46, (R)-N-((5-chlorothiophen-2-yl)(5-oxo-4,5-dihydro-1,2,4-oxadiazol-3-yl)methyl)-4-(6-fluoro-7-(methylamino)-2,4-dioxo-1,2-dihydroquinazolin-3(4H)-yl)benzamide]	10 to 30	50 to 500
CNc1cc2[nH]c(=O)n(-c3ccc(C(=O)NC(C(N)=O)c4ccc(Cl)s4)cc3)c(=O)c2cc1F (stereo not shown) [Compound 47, N-(2-amino-1-(5-chlorothiophen-2-yl)-2-oxoethyl)-4-(6-fluoro-7-(methylamino)-2,4-dioxo-1,2-dihydroquinazolin-3(4H)-yl)benzamide]	< 10	50 to 500
CNc1cc2c(=O)n(-c3ccc(C(=O)NC(c4noc(=O)[nH]4)c4ccc(Cl)s4)cc3)c(=O)[nH]c2cc1F (stereo not shown) [Compound 50, N-((5-chlorothiophen-2-yl)(5-oxo-4,5-dihydro-1,2,4-oxadiazol-3-yl)methyl)-4-(7-fluoro-6-(methylamino)-2,4-dioxo-1,2-dihydroquinazolin-3(4H)-yl)benzamide]	> 30	50 to 500
CNc1cc2[nH]c(=O)n(-c3ccc(C(=O)NC(c4noc(=O)[nH]4)c4ccc(Cl)s4)cc3OC)c(=O)c2cc1F (stereo not shown) [Compound 53, N-((5-chlorothiophen-2-yl)(5-oxo-4,5-dihydro-1,2,4-oxadiazol-3-yl)methyl)-4-(6-fluoro-7-(methylamino)-2,4-dioxo-1,2-dihydroquinazolin-3(4H)-yl)-3-methoxybenzamide]	> 30	50 to 500
CNc1cc2c(cc1F)C(=O)N(c1ccc(C(=O)NC(c3nnn[nH]3)c3ccc(Cl)s3)cc1)CO2 (stereo not shown) [Compound 54, N-((5-chlorothiophen-2-yl)(1H-tetrazol-5-yl)methyl)-4-(6-fluoro-7-(methylamino)-4-oxo-2H-benzo[e][1,3]oxazin-3(4H)-yl)benzamide]	10 to 30	< 50
CNc1cc2c(cc1F)C(=O)N(c1ccc(C(=O)N(CC(=O)O)Cc3ccc(Cl)s3)cc1)CO2 [Compound 55]	> 30	50 to 500
CNc1cc2c(cc1F)C(=O)N(c1ccc(C(=O)NC(C(=O)O)c3ccc(Cl)s3)cc1)CO2 (stereo not shown) [Compound 56, 2-(5-chlorothiophen-2-yl)-2-(4-(6-fluoro-7-(methylamino)-4-oxo-2H-benzo[e][1,3]oxazin-3(4H)-yl)benzamido)acetic acid]	10 to 30	< 50
CNc1cc2c(cc1F)C(=O)N(c1ccc(C(=O)NC(c3nnn[nH]3)c3ccc(C)s3)cc1)CO2 (stereo not shown) [Compound 61, 4-(6-fluoro-7-(methylamino)-4-oxo-2H-benzo[e][1,3]oxazin-3(4H)-yl)-N-((5-methylthiophen-2-yl)(1H-tetrazol-5-yl)methyl)benzamide]	10 to 30	< 50
